Reference: patent publication US7868007B2, “Triazolopyridine carboxamide derivatives, preparation thereof and therapeutic use thereof” (sanofi-aventis, priority 2007, dated 2011)

Legend:
[1] = biological target: T1, MGL (monoacyl glycerol lipase) enzyme (Mus musculus, UniProt O35678); experiment: radioenzymatic assay of MGL inhibition (hydrolysis of [3H] 2-OG by mouse brain homogenate); assay type: biochemical; settings: 50 μM 2-OG with [3H] 2-OG, 20 minutes preincubation, 20 minutes incubation at ambient temperature, read-out: IC50 (concentration which inhibits 50% of the control enzymatic activity of MGL)
T1 construct: the source of MGL enzyme is a homogenate of mouse brain from which the cerebellum and the medulla oblongata have been removed; from tissue; host or cells: mouse brain homogenate (cerebellum and medulla oblongata removed)
T1 sequence (O35678 1-303): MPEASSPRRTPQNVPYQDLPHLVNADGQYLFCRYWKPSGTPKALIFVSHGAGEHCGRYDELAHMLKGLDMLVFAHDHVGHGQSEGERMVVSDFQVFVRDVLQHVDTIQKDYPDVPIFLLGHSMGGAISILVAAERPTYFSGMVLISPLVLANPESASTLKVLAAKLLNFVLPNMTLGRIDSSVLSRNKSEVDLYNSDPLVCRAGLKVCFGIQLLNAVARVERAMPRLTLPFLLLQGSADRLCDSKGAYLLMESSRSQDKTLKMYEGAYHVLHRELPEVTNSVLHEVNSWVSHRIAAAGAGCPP
Description: The inhibitory activity with respect to MGL is given by the concentration which inhibits 50% of the activity of MGL.
The inhibitory activity was measured in a radioenzymatic assay based on measuring the product of hydrolysis of 2-oleoyl glycerol ([^3H] 2-OG) by MGL. The products of hydrolysis of [^3H] 2-OG, labeled on the glycerol, are oleic acid and [^3H]glycerol, and the source of MGL enzyme is a homogenate of mouse brain from which the cerebellum and the medulla oblongata have been removed. The mouse brains are removed, and stored at −80° C. until they are used or homogenized immediately for twice 5 seconds using a Precellys apparatus at 5000 rpm (Bertin) in a 10 mM tris-HCl, 150 mM NaCl, 1 mM EDTA buffer (pH 8) at 4° C. The concentration of the homogenates is then adjusted to 7.5 μg/μl.
The dilution series of the compounds is prepared from stock solutions at 20 mM in 100% DMSO. […]
Assaying of the MGL activity is carried out in a 96-well microplate in a final reaction volume of 100 μl. […] After stirring for 10 minutes, the microplate is centrifuged for 15 minutes at 4000 g and a 30 μl aliquot of the aqueous phase containing the [^3H]glycerol produced is removed and then counted for 5 minutes by liquid scintillation (Wallac 1450 Microbeta).

SMILES	melting point	IC50 [1] [nM]
O=C(N1CCN(C(c2ccccc2)c2ccccc2)CC1)n1nnc2ncccc21 [Compound 1, (4-Benzhydrylpiperazin-1-yl)[1,2,3]triazolo[4,5-b]pyridin-1-ylmethanone]	146 to 148 °C (dec.)	4
O=C(N1CCN(C(c2ccccc2)c2ccccc2)CC1)n1nnc2ncc(Cl)cc21 [Compound 2, (4-Benzhydrylpiperazin-1-yl)(6-chloro[1,2,3]triazolo[4,5-b]pyridin-1-yl)methanone]	173 to 175 °C (dec.)	
O=C(N1CCN(C(c2ccc(F)cc2)c2ccc(F)cc2)CC1)n1nnc2ncccc21 [Compound 3, {4-[Bis(4-fluorophenyl)methyl]piperazin-1-yl}[1,2,3]triazolo[4,5-b]pyridin-1-ylmethanone]	151 to 153 °C (dec.)	
O=C(N1CCN(C(c2ccc(Cl)cc2)c2ccc(Cl)cc2)CC1)n1nnc2ncccc21 [Compound 4, {4-[Bis(4-chlorophenyl)methyl]piperazin-1-yl}[1,2,3]triazolo[4,5-b]pyridin-1-ylmethanone]	163 to 165 °C (dec.)	
O=C(N1CCN(C(c2ccc(F)cc2)c2ccc(F)cc2)CC1)n1nnc2ncc(Cl)cc21 [Compound 5, {4-[Bis(4-fluorophenyl)methyl]piperazin-1-yl}(6-chloro[1,2,3]triazolo[4,5-b]pyridin-1-yl)-methanone]	167 to 169 °C (dec.)	
O=C(N1CCN(C2c3ccccc3CCc3ccccc32)CC1)n1nnc2ncccc21 [Compound 7, [4-(10,11-Dihydro-5H-dibenzo[a,d]cyclohepten-5-yl)piperazin-1-yl][1,2,3]triazolo[4,5-b]-pyridin-1-ylmethanone]	190 to 194 °C (dec.)	25
O=C(N1CCN(C2c3ccccc3-c3ccccc32)CC1)n1nnc2ncccc21 [Compound 8, [4-(9H-Fluoren-9-yl)piperazin-1-yl][1,2,3]triazolo[4,5-b]pyridin-1-ylmethanone]	170 to 172 °C (dec.)	
